Measurements as given in US12466809B2, “CDK2/5 degraders and uses thereof” (DANA-FARBER CANCER INSTITUTE, INC., priority 2019, dated 2025).

Columns and labels:
CDK2/Cyclin A = CDK2/Cyclin A (Homo sapiens (Human), UniProt P24941); assay: Invitrogen Z'-LYTE kinase assay CDK2/Cyclin A (assay ID 315, Km app, 10-point titration); assay type: biochemical; details: Km app ATP
Text: (§1) CDK2 and CDK5 IC50 data were attained through the use of Invitrogen™ commercial assays. The method for CDK2 (assay ID: 315, kinase|Z'-LYTE™|CDK2/Cyclin A|Km app) used a 10-point titration. The method for CDK5 (assay ID: 318, kinase|Z'-LYTE™|CDK5/p25|Km app) used a 10-point titration.

CDK5/p25 = CDK5/p25 (Homo sapiens (Human), UniProt Q00535); assay: Invitrogen Z'-LYTE kinase assay CDK5/p25 (assay ID 318, Km app, 10-point titration); assay type: biochemical; details: CDK5/p25, Km app ATP
Chain of CDK5/p25 (Q00535 whole entry): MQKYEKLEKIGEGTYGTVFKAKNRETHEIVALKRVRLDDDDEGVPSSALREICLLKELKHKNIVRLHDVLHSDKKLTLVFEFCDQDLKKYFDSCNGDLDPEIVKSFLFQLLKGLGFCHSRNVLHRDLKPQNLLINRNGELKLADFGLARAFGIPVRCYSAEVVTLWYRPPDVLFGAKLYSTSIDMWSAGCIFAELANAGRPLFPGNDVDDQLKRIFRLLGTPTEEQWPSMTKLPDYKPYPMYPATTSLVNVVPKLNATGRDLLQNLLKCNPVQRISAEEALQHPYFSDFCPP
Chain of CDK5/p25 (Q15078 99-307 partner): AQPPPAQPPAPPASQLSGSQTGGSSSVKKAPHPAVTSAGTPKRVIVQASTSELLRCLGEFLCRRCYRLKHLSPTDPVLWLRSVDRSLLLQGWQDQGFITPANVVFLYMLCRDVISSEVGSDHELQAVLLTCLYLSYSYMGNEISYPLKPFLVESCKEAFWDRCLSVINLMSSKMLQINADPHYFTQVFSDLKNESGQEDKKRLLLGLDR
Text: as §1

CDK5 = CDK5 (Homo sapiens (Human), UniProt Q00535); assay: Knockdown of CDK2/5 in OVCAR8 cells, immunoblot: CDK5; assay type: cell-based; details: various concentrations, 6 hours
Chain of CDK5 (Q00535 whole entry): as the sequence (Q00535 whole entry) above

CDK2 = CDK2 (Homo sapiens (Human), UniProt P24941); assay: Knockdown of CDK2/5 in OVCAR8 cells, immunoblot: CDK2; assay type: cell-based; details: various concentrations, 6 hours
CDK9 = CDK9 (Homo sapiens (Human), UniProt P50750); assay: Knockdown of CDKs in Jurkat cells, immunoblot: CDK9; assay type: cell-based; details: 0.25 μM, 6 hours
Chain of CDK9 (P50750 whole entry): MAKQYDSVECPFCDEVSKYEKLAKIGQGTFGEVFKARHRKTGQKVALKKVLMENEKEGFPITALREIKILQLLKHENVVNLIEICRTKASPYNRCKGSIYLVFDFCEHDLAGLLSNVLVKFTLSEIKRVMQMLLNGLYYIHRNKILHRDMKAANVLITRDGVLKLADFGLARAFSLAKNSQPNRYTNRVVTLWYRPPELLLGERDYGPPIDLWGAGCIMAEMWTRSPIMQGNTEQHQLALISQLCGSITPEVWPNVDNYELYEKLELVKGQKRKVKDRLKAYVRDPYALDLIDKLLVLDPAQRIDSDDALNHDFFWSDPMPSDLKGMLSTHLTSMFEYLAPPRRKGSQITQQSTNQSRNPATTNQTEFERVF
Procedure: Jurkat acute T cell leukemia cells were treated with 0, 0.1 μM, 1 μM, and 10 μM of compounds 1-7 or 0.25 μM THAL-SNS-032 (a known CDK9 degrader, as a positive control for CDK9 degradation) for 6 hours, and then lysed and immunoblotted with antibodies to CDK1, CDK2, CDK5, CDK7, CDK9, CDK12, CDK13 and R-Actin (FIG. 1A-FIG. 2B).

SMILES	IC50 (CDK2/Cyclin A) [nM]	IC50 (CDK5/p25) [nM]	knockdown of CDK5 (CDK5)	knockdown of CDK2 (CDK2)	CDK9 degradation (CDK9)
NC(=O)c1c(F)cccc1Nc1nc(NC2CCN(S(=O)(=O)CCNC(=O)CCCCCCCCOc3cccc4c3C(=O)N(C3CCC(=O)NC3=O)C4=O)CC2)ncc1Br (stereo not drawn) [Compound 5, 2-((5-bromo-2-((1-((2-(9-((2-(2,6-dioxopiperidin-3-yl)-1,3-dioxoisoindolin-4-yl)oxy)nonanamido)ethyl)sulfonyl)piperidin-4-yl)amino)pyrimidin-4-yl)amino)-6-fluorobenzamide]	28.7	16.1	selective knockdown	selective knockdown	
O=C(CCOCCOCCOCCOCCNc1cccc2c1C(=O)N(C1CCC(=O)NC1=O)C2=O)NCCS(=O)(=O)N1CCC(Nc2ncc(Br)c(Nc3cccc4c3C(=O)NC4)n2)CC1 (stereo not drawn) [Compound 20, N-(2-((4-((5-bromo-4-((3-oxoisoindolin-4-yl)amino)pyrimidin-2-yl)amino)piperidin-1-yl)sulfonyl)ethyl)-1-((2-(2,6-dioxopiperidin-3-yl)-1,3-dioxoisoindolin-4-yl)amino)-3,6,9,12-tetraoxapentadecan-15-amide]	4.7	5.8			
O=C(CCCCCCCCOc1cccc2c1C(=O)N(C1CCC(=O)NC1=O)C2=O)NCCS(=O)(=O)N1CCC(Nc2ncc(Br)c(Nc3cccc4c3C(=O)NC4)n2)CC1 (stereo not drawn) [Compound 21, N-(2-((4-((5-bromo-4-((3-oxoisoindolin-4-yl)amino)pyrimidin-2-yl)amino)piperidin-1-yl)sulfonyl)ethyl)-9-((2-(2,6-dioxopiperidin-3-yl)-1,3-dioxoisoindolin-4-yl)oxy)nonanamide]	10.5	7.6			
Cn1ncc(Nc2nc(NC3CCN(S(=O)(=O)CCNC(=O)CCCCCCCCOc4cccc5c4C(=O)N(C4CCC(=O)NC4=O)C5=O)CC3)ncc2Br)c1C(N)=O (stereo not drawn) [Compound 22, 4-((5-bromo-2-((1-((2-(9-((2-(2,6-dioxopiperidin-3-yl)-1,3-dioxoisoindolin-4-yl)oxy)nonanamido)ethyl)sulfonyl)piperidin-4-yl)amino)pyrimidin-4-yl)amino)-1-methyl-1H-pyrazole-5-carboxamide]	5.7	5.7			
NC(=O)c1c(F)cccc1Nc1nc(Nc2ccc(S(=O)(=O)NCCOCCOCCOCCOCCNc3cccc4c3C(=O)N(C3CCC(=O)NC3=O)C4=O)cc2)ncc1Br (stereo not drawn) [Compound 23, 2-((5-bromo-2-((4-(N-(14-((2-(2,6-dioxopiperidin-3-yl)-1,3-dioxoisoindolin-4-yl)amino)-3,6,9,12-tetraoxatetradecyl)sulfamoyl)phenyl)amino)pyrimidin-4-yl)amino)-6-fluorobenzamide]	10.9	7			
Cc1cc(Nc2ncc(Br)c(Nc3cccc(F)c3C(N)=O)n2)ccc1S(=O)(=O)NCCOCCOCCOCCOCCNc1cccc2c1C(=O)N(C1CCC(=O)NC1=O)C2=O (stereo not drawn) [Compound 25, 2-((5-bromo-2-((4-(N-(14-((2-(2,6-dioxopiperidin-3-yl)-1,3-dioxoisoindolin-4-yl)amino)-3,6,9,12-tetraoxatetradecyl)sulfamoyl)-3-methylphenyl)amino)pyrimidin-4-yl)amino)-6-fluorobenzamide]	8.1	7.1			
Cc1cc(S(=O)(=O)NCCOCCOCCOCCOCCNC(=O)COc2cccc3c2C(=O)N(C2CCC(=O)NC2=O)C3=O)ccc1Nc1ncc(Br)c(Nc2cccc(F)c2C(N)=O)n1 (stereo not drawn) [Compound 46, 2-((5-bromo-2-((4-(N-(1-((2-(2,6-dioxopiperidin-3-yl)-1,3-dioxoisoindolin-4-yl)oxy)-2-oxo-6,9,12,15-tetraoxa-3-azaheptadecan-17-yl)sulfamoyl)-2-methylphenyl)amino)pyrimidin-4-yl)amino)-6-fluorobenzamide]	1.7	1.4			
Cc1cc(S(=O)(=O)NCCCCCCCCCCNC(=O)COc2cccc3c2C(=O)N(C2CCC(=O)NC2=O)C3=O)ccc1Nc1ncc(Br)c(Nc2cccc(F)c2C(N)=O)n1 (stereo not drawn) [Compound 47, 2-((5-bromo-2-((4-(N-(10-(2-((2-(2,6-dioxopiperidin-3-yl)-1,3-dioxoisoindolin-4-yl)oxy)acetamido)decyl)sulfamoyl)-2-methylphenyl)amino)pyrimidin-4-yl)amino)-6-fluorobenzamide]	19.4	18.2			
Cc1cc(S(=O)(=O)NCCCCN2CCN(C(=O)COc3cccc4c3C(=O)N(C3CCC(=O)NC3=O)C4=O)CC2)ccc1Nc1ncc(Br)c(Nc2cccc(F)c2C(N)=O)n1 (stereo not drawn) [Compound 48, 2-((5-bromo-2-((4-(N-(4-(4-(2-((2-(2,6-dioxopiperidin-3-yl)-1,3-dioxoisoindolin-4-yl)oxy)acetyl)piperazin-1-yl)butyl)sulfamoyl)-2-methylphenyl)amino)pyrimidin-4-yl)amino)-6-fluorobenzamide]	2	2.9			
CC(C)(C)c1cnc(CSc2cnc(NC(=O)C3CCN(CC(=O)NCCOCCOCCOCCNc4cccc5c4C(=O)N(C4CCC(=O)NC4=O)C5=O)CC3)s2)o1 (stereo not drawn) [THAL-SNS-032]					induced CDK9 degradation
